The record followed here is patent US9751869B2, “LXR modulators” (BRISTOL-MYERS SQUIBB COMPANY, priority 2013, dated 2017).

For the test, the target named is T1, LXRβ (Homo sapiens, UniProt P55055).
T1 construct: Co-transfection expression plasmids, comprising full-length LXRα (pCMX-h LXRα or LXRβ (pCMX-hLXRβ)); expressed in transfected cells; host or cells: CV-1 African green monkey kidney cells, transient transfection with pCMX-hLXRβ
T1 sequence (P55055 1-460): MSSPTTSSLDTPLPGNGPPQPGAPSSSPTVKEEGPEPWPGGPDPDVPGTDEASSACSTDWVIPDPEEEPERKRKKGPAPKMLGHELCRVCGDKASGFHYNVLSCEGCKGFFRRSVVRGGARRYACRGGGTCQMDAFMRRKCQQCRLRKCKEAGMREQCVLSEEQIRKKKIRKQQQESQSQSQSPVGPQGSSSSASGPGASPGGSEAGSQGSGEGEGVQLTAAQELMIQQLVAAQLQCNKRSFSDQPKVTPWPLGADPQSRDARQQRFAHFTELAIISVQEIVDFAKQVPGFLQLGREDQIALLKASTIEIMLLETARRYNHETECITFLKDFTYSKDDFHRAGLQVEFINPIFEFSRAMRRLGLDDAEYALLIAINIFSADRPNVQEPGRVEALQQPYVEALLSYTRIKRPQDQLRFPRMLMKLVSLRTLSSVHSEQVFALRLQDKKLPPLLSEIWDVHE
T1 sequence (P19793 1-462 partner): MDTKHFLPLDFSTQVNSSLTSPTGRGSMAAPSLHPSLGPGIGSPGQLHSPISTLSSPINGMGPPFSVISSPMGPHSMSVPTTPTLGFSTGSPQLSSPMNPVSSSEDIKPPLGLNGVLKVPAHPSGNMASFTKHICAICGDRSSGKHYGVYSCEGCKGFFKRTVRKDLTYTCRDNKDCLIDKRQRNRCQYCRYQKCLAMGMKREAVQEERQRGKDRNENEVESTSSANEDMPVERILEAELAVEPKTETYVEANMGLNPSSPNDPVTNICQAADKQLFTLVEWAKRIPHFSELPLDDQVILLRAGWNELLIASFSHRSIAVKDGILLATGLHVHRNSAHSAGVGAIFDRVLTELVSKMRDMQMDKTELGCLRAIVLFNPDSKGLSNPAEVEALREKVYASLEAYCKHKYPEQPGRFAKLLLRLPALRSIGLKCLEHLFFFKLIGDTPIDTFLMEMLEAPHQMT
The experiment in a line: LXR/LXRE co-transfection assay (luciferase reporter) in CV-1 cells, LXRβ. Format: cell-based. The following applies: for EC50: CV-1 cells transfected with pCMX-hLXRβ and LXREx1-Tk-Luciferase, 20 hours incubation, read-out: LXRbeta agonism EC50; for Emax: CV-1 cells, relative to maximum response of high control N-(3-((4-fluorophenyl)-(naphthalene-2-sulfonyl)amino)propyl)-2,2-dimethylpropionamide, read-out: LXRbeta % EFFICACY
In outline: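 CV-1 cells transiently co-transfected with full-length human LXRβ, LXRE-Tk-luciferase reporter and β-galactosidase control, then exposed to compound (≤0.5% DMSO) for 20 h at 37 °C before luminescence read. EC50 from 10-point, half-log dose curves; efficacy relative to the sulfonamide high control, means of 2–3 experiments.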
For orientation: Reporter assays use an easily measured gene product as a stand-in for the process of interest.

One may read the EC50 as the concentration needed to bring the measured effect to its halfway point. With `Cc1nc(-c2ccc(OC(F)F)cc2)c(-c2cc(-c3ccc(CO)c(S(C)(=O)=O)c3)ccc2-n2nc(C(F)(F)F)cc2C)o1` [Example 326, (3′-(4-(4-(difluoromethoxy)phenyl)-2-methyloxazol-5-yl)-4′-(5-methyl-3-(trifluoromethyl)-1H-pyrazol-1-yl)-3-(methylsulfonyl)biphenyl-4-yl)methanol], the EC50 stood at 15 nM and the Emax is 77%.

As for `Cc1nc(-c2ccc(OC(F)F)cc2)c(-c2cc(-c3cccc(S(C)(=O)=O)c3)ccc2-n2nc(C(F)(F)F)cc2C)o1` [Example 327, 4-(4-(difluoromethoxy)phenyl)-2-methyl-5-(4-(5-methyl-3-(trifluoromethyl)-1H-pyrazol-1-yl)-3′-(methylsulfonyl)biphenyl-3-yl)oxazole], the EC50 came to 27 nM and the Emax was 78%.

For the molecule `Cc1nc(-c2ccc3c(c2)OC(F)(F)O3)c(-c2cc(-c3cccc(S(C)(=O)=O)c3)ccc2-n2nc(C(F)(F)F)cc2C)o1` [Example 328, 4-(2,2-difluorobenzo[d][1,3]dioxol-5-yl)-2-methyl-5-(4-(5-methyl-3-(trifluoromethyl)-1H-pyrazol-1-yl)-3′-(methylsulfonyl)biphenyl-3-yl)oxazole], the EC50 was found to be 24 nM and the Emax is 112%.

As for `Cc1nc(-c2ccc3c(c2)OC(F)(F)O3)c(-c2cc(-c3cc(F)c(CO)c(S(C)(=O)=O)c3)ccc2-n2nc(C(F)(F)F)cc2C)o1` [Example 329, (3′-(4-(2,2-difluorobenzo[d][1,3]dioxol-5-yl)-2-methyloxazol-5-yl)-3-fluoro-4′-(5-methyl-3-(trifluoromethyl)-1H-pyrazol-1-yl)-5-(methylsulfonyl)biphenyl-4-yl)methanol], the EC50 is 3 nM and the Emax is 92%.

Turning to `Cc1nc(-c2ccc3c(c2)OC(F)(F)O3)c(-c2cc(-c3ccc(CO)c(S(C)(=O)=O)c3)ccc2-n2nc(C(F)(F)F)cc2C)o1` [Example 330, (3′-(4-(2,2-difluorobenzo[d][1,3]dioxol-5-yl)-2-methyloxazol-5-yl)-4′-(5-methyl-3-(trifluoromethyl)-1H-pyrazol-1-yl)-3-(methylsulfonyl)biphenyl-4-yl)methanol], the concentration giving a half-maximal response (EC50) turned out to be 5 nM and the Emax worked out at 64%.

`Cc1nc(-c2ccc(OC(F)(F)F)cc2)c(-c2cc(-c3cccc(S(C)(=O)=O)c3)ccc2-n2nc(C(F)(F)F)cc2C)o1` [Example 331, 2-methyl-5-(4-(5-methyl-3-(trifluoromethyl)-1H-pyrazol-1-yl)-3′-(methylsulfonyl)biphenyl-3-yl)-4-(4-(trifluoromethoxy)phenyl)oxazole]: the EC50 worked out at 61 nM and the Emax was 82%.

For `Cc1nc(-c2ccc(OC(F)(F)F)cc2)c(-c2cc(-c3cc(F)c(CO)c(S(C)(=O)=O)c3)ccc2-n2nc(C(F)(F)F)cc2C)o1` [Example 332, (3-fluoro-4′-(5-methyl-3-(trifluoromethyl)-1H-pyrazol-1-yl)-3′-(2-methyl-4-(4-(trifluoromethoxy)phenyl)oxazol-5-yl)-5-(methylsulfonyl)biphenyl-4-yl)methanol], the EC50 stood at 35 nM and the Emax turned out to be 70%.

For `Cc1nc(-c2ccc(OC(F)(F)F)cc2)c(-c2cc(-c3ccc(CO)c(S(C)(=O)=O)c3)ccc2-n2nc(C(F)(F)F)cc2C)o1` [Example 333, (4′-(5-methyl-3-(trifluoromethyl)-1H-pyrazol-1-yl)-3′-(2-methyl-4-(4-(trifluoromethoxy)phenyl)oxazol-5-yl)-3-(methylsulfonyl)biphenyl-4-yl)methanol], the half-maximal effective concentration (EC50) stood at 35 nM and the Emax is 69%.

As for `Cc1nc(-c2ccc(OC(F)(F)F)cc2)c(-c2cc(-c3cc(F)cc(S(C)(=O)=O)c3)ccc2-n2ccc(C(F)(F)F)n2)o1` [Example 334, 5-(3′-fluoro-5′-(methylsulfonyl)-4-(3-(trifluoromethyl)-1H-pyrazol-1-yl)biphenyl-3-yl)-2-methyl-4-(4-(trifluoromethoxy)phenyl)oxazole], the EC50 was found to be 305 nM and the Emax amounted to 80%.

For `Cc1nc(-c2ccc(OC(F)(F)F)cc2)c(-c2cc(-c3cc(F)c(CO)c(S(C)(=O)=O)c3)ccc2-n2ccc(C(F)(F)F)n2)o1` [Example 335, (3-fluoro-3′-(2-methyl-4-(4-(trifluoromethoxy)phenyl)oxazol-5-yl)-5-(methylsulfonyl)-4′-(3-(trifluoromethyl)-1H-pyrazol-1-yl)biphenyl-4-yl)methanol], the concentration giving a half-maximal response (EC50) came to 29 nM and the Emax came out at 71%.

With `Cc1nc(-c2ccc(Cl)cc2)c(-c2cc(-c3cc(F)c(CO)c(S(C)(=O)=O)c3)ccc2-n2ccc(C(F)(F)F)n2)o1` [Example 336, (3′-(4-(4-chlorophenyl)-2-methyloxazol-5-yl)-3-fluoro-5-(methylsulfonyl)-4′-(3-(trifluoromethyl)-1H-pyrazol-1-yl)biphenyl-4-yl)methanol], the EC50 turned out to be 33 nM and the Emax was determined as 75%.

Turning to `Cc1nc(-c2ccc(Cl)cc2Cl)c(-c2cc(-c3cccc(S(C)(=O)=O)c3)ccc2-n2ccc(C(F)(F)F)n2)o1` [Example 337, 4-(2,4-dichlorophenyl)-2-methyl-5-(3′-(methylsulfonyl)-4-(3-(trifluoromethyl)-1H-pyrazol-1-yl)biphenyl-3-yl)oxazole], the half-maximal effective concentration (EC50) came out at 178 nM and the Emax was 77%.

Consider `CS(=O)(=O)c1cccc(-c2ccc(-n3ccc(C(F)(F)F)n3)c(-c3oc(C4CC4)nc3-c3ccc(OC(F)(F)F)cc3)c2)c1` [Example 338, 2-cyclopropyl-5-(3′-(methylsulfonyl)-4-(3-(trifluoromethyl)-1H-pyrazol-1-yl)biphenyl-3-yl)-4-(4-(trifluoromethoxy)phenyl)oxazole], for which the EC50 turned out to be 186 nM and the Emax was 58%.

Consider `CS(=O)(=O)c1cc(-c2ccc(-n3ccc(C(F)(F)F)n3)c(-c3oc(C4CC4)nc3-c3ccc(OC(F)(F)F)cc3)c2)cc(F)c1CO` [Example 339, (3′-(2-cyclopropyl-4-(4-(trifluoromethoxy)phenyl)oxazol-5-yl)-3-fluoro-5-(methylsulfonyl)-4′-(3-(trifluoromethyl)-1H-pyrazol-1-yl)biphenyl-4-yl)methanol], for which the concentration giving a half-maximal response (EC50) is 60 nM and the Emax was found to be 64%.

Regarding `CC(C)c1nc(-c2ccc(OC(F)(F)F)cc2)c(-c2cc(-c3cccc(S(C)(=O)=O)c3)ccc2-n2ccc(C(F)(F)F)n2)o1` [Example 340, 2-isopropyl-5-(3′-(methylsulfonyl)-4-(3-(trifluoromethyl)-1H-pyrazol-1-yl)biphenyl-3-yl)-4-(4-(trifluoromethoxy)phenyl)oxazole], the EC50 is 279 nM and the Emax turned out to be 72%.

For `CC(C)c1nc(-c2ccc(OC(F)(F)F)cc2)c(-c2cc(-c3cc(F)c(CO)c(S(C)(=O)=O)c3)ccc2-n2ccc(C(F)(F)F)n2)o1` [Example 341, (3-fluoro-3′-(2-isopropyl-4-(4-(trifluoromethoxy)phenyl)oxazol-5-yl)-5-(methylsulfonyl)-4′-(3-(trifluoromethyl)-1H-pyrazol-1-yl)biphenyl-4-yl)methanol], the EC50 came out at 58 nM and the Emax turned out to be 76%.

Take `Cc1nc(-c2ccc(OC(F)(F)F)cc2)c(-c2cc(-c3cccc(C(C)(C)C#N)c3)ccc2-n2ccc(C(F)(F)F)n2)o1` [Example 342, 2-methyl-2-(3′-(2-methyl-4-(4-(trifluoromethoxy)phenyl)oxazol-5-yl)-4′-(3-(trifluoromethyl)-1H-pyrazol-1-yl)biphenyl-3-yl) propanenitrile]: the concentration for a half-maximal effect (EC50) stood at 432 nM and the Emax is 46%.

With `Cc1nc(-c2ccc(OC(F)(F)F)cc2)c(-c2cc(-c3cccc(C(C)(C)C(N)=O)c3)ccc2-n2ccc(C(F)(F)F)n2)o1` [Example 343, 2-methyl-2-(3′-(2-methyl-4-(4-(trifluoromethoxy)phenyl)oxazol-5-yl)-4′-(3-(trifluoromethyl)-1H-pyrazol-1-yl)biphenyl-3-yl) propanamide], the concentration giving a half-maximal response (EC50) was determined as 149 nM and the Emax amounted to 74%.

In the case of `Cc1nc(-c2ccc(Cl)cc2)c(-c2cc(-c3cccc(S(C)(=O)=O)c3)ccc2-n2ccc(C(F)(F)F)n2)o1` [Example 344, 4-(4-chlorophenyl)-2-methyl-5-(3′-(methylsulfonyl)-4-(3-(trifluoromethyl)-1H-pyrazol-1-yl)biphenyl-3-yl)oxazole], the 50% effective concentration (EC50) came to 116 nM and the Emax is 72%.
